Data from PubChem BioAssay AID651620 (Broad Institute, 2012).

System: non-replicating M. tuberculosis, luciferase reporter
Experiment: inhibitors of non-replicating M. tuberculosis, dose response, luciferase, dry powder (AID 651620)

[N-]=[N+]=NCCOCCNC(=O)CCCn1cc(CS(=O)c2nnc(-c3ccc(F)cc3)o2)nn1 (stereo unspecified)
IC90: 125 µM
